Data from patent publication US20120059021A1, “COMPOSITIONS AND METHODS FOR TREATING CANCER AND METHODS FOR PREDICTING A RESPONSE TO SUCH TREATMENTS” (UNIVERSITY OF WASHINGTON, priority 2008, published 2012).

Tests used:
[1] = system: human A375 melanoma cells grown as xenografts; assay: Xenograft assay, A375:GFP or A375:WNT3A tumors in NSG mice; format: in vivo, mouse; settings: 50 mg/kg PLX4720 oral gavage once daily
Procedure: Xenograft assays. NSG (NOD/SCID/IL2r-gamma (null)) mice were injected with 5×10^5 A375 cells stably expressing GFP or 5×10^5 A375 cells stably expressing WNT3A-IRES-GFP. Tumors were allowed to establish to approximately 100 mm^3, after which mice where tumor size-matched and allocated to five per treatment group (vehicle or PLX4720). WNT3A-IRES-GFP tumors grew slower and therefore the first day of treatment was day 14 while GFP expressing tumors were first treated on day 9. Treatment was by oral gavage once daily with 5% DMSO in 1% carboxymethyl cellulose or 50 mg/kg PLX4720 in 1% carboxymethyl cellulose (604 mM PLX4720 in DMSO was diluted 1:20 in 1% carboxymethylcellulose). Tumor size was determined by caliper measurements of tumor length and width every 3 to 4 days. Tumor volume was then calculated using the following formula: volume=(width)^2×length/2. Tumors were harvested 2 hours after the last dose and fixed in neutral-buffered formalin overnight at room temperature.

[2] = system: AXIN1; assay: Immunoblot of steady-state AXIN1 levels in melanoma cells; format: cell-based, human
[3] = system: A375; assay: qPCR of endogenous Wnt target gene AXIN2, A375; format: cell-based, human; settings: A375; WNT3A CM, 2 μM PLX4720, 24 hours
Text: (§1) RNA purification and qRT-PCR analysis. RNA was purified using the RNeasy kit following the manufacturer's protocol (Qiagen; Maryland, Md.). cDNA was synthesized using RevertAid™ M-MuLV Reverse Transcriptase (Fermentas; Ontario, CAN). Light Cycler FastStart DNA Master SYBR Green1 (Roche; Mannheim, Germany) was used for real-time PCR as previously described (53). Quantitative PCR results presented in the manuscript are averages of a minimum of three biologic replicates.

[4] = system: A2058; assay: Flow cytometry for active (cleaved) caspase-3, A2058; format: cell-based, human; settings: 2 uM PLX4720, 24 hours, in % (unit assumed)
Procedure: (§2) Flow cytometry for Active Caspase-3. Cells were seeded in a 6-well dish at a density to achieve 90-100% confluence at harvest. 24 hours after seeding, cells were treated with the indicated conditions for the indicated amount of time. At the time of collection, supernatants were collected and pooled with trypsinized cells. Cells were fixed with 4% paraformaldehyde and permeabilized according to vendor's protocol for Cleaved Caspase-3 (Asp175) Antibody (AlexaFluor 488 Conjugate) (catalog #9669) (Cell Signaling, Beverly Mass.). The antibody was used at a final dilution of 1:100. Flow was performed on a BD FACSCanto H, and data analysed with FlowJo 8.8.6 (Tree Star) software. Experiments were performed with biological triplicates and data are representative of at least three independent experiments.
For experiments involving siRNAs, cells were reverse transfected with 20 nM siRNA in 6-well dishes in triplicate with RNAiMax according to manufacturer's protocol. 48 hours following transfection, cells were treated with the indicated conditions for 24 hours and then harvested for analysis. Cells were harvested, stained, and analyzed as described above.

[5] = system: A375 cells; assay: TUNEL assay; format: cell-based, human
Procedure: TUNEL. Glass coverslips were coated with poly-L-lysine in a 24-well dish, rinsed with PBS, and dried. Cells were seeded at a density to achieve 90-100% at harvest. 24 hours after seeding, cells were treated with the indicated conditions and incubated for 24 hours. TUNEL staining was performed according to vendor's protocol (cat#12 156 792 910) (Roche Indianapolis, Ind.). Briefly, media was gently aspirated and cells were fixed in 4% paraformaldehyde for 1 hour at room temperature. Cells were gently rinsed twice with PBS and permeabilized with 0.1% Triton X-100 in 0.1% sodium citrate for 2 minutes on ice. Cells were rinsed twice with PBS, and 40 uL of TUNEL reaction mixture was added directly on top of the slide and incubated for 1 hour at 37° C. in a humidified incubator. Slips were rinsed 3 times and mounted on superfrost plus glass slides (cat#48311-703 VWR West Chester, Pa.) with Prolong Gold anti-fade mounting media containing DAPI (cat# P36931 Invitrogen; Grand Island, N.Y.). Images were obtained on a Nikon TiE inverted widefield high-resolution microscope (Nikon Melville, N.Y.).

[6] = system: β-catenin; assay: Immunoblot for β-catenin phosphorylation at Ser33/Ser37/Thr41 in A375 cells; format: cell-based, human
[7] = system: MEL624; assay: qPCR of endogenous Wnt target gene AXIN2, MEL624; format: cell-based, human; settings: WNT3A CM, 2 μM PLX4720, 24 hours
Text: as §1

[8] = system: MEL624; assay: Flow cytometry for active (cleaved) caspase-3, MEL624; format: cell-based, human; settings: WNT3A, 2 μM PLX4720, 24 hours
Procedure: as §2, with “experiments. For experiments involving siRNAs, cells were reverse transfected with 20 nM siRNA in 6-well dishes in triplicate with RNAiMax according to manufacturer's protocol. 48 hours following transfection, cells were treated with the indicated conditions for 24 hours and then harvested for analysis. Cells were harvested, stained, and analyzed as described above.” for “experiments.”

[9] = system: COLO829; assay: qPCR of endogenous Wnt target gene AXIN2, COLO829; format: cell-based, human; settings: WNT3A CM, 2 μM PLX4720, 24 hours
Text: as §1

[10] = system: AXIN1; assay: qRT-PCR of AXIN1 mRNA in A375 cells; format: cell-based, human; settings: A375, 2 μM PLX4720, 24 hours
Text: as §1

[11] = A375, WNT3A and PLX4720 time course

Compound: CCCS(=O)(=O)Nc1ccc(F)c(C(=O)c2c[nH]c3ncc(Cl)cc23)c1F [PLX4720, N-[3-[(5-Chloro-1H-pyrrolo[2,3-b]pyridin-3-yl)carbonyl]-2,4-difluorophenyl]-1-propanesulfonamide]
- tumor growth ([1]; A375:GFP tumors): decreased tumor growth compared to drug vehicle
- tumor growth ([1]; A375:WNT3A tumors, over four weeks): near complete suppression
- steady-state levels of AXIN1 ([2]; A375, Mel624, and COLO829, WNT3A plus 2 μM PLX4720 vs WNT3A alone, 24 hours): markedly reduced
- time after which almost no detectable AXIN1 remained [2, 11]: 16 to 20 h
- time to rapid decrease in steady-state levels of AXIN1 [2, 11]: 1 to 2 h
- steady-state AXIN1 levels ([2]; SKMEL5, SKMEL28 and A2058, WNT3A plus 2 μM PLX4720 vs WNT3A alone, 24 hours): did not significantly decrease
- steady-state levels of AXIN1 ([2]; absence of rWnt3A): slightly decreased
- steady-state levels of AXIN1 ([2]; presence of rWnt3A): markedly diminished
- SYNERGISTIC WNT ACTIVATION WITH PLX4720? [3]: YES
- cleaved caspase-3-positive cells ([4]; AXIN1/2 siRNA, L CM): 12.67 ± 0.89
- cleaved caspase-3-positive cells ([4]; AXIN1/2 siRNA, W3A CM): 15.07 ± 1.6
- cleaved caspase-3-positive cells ([4]; Control siRNA, L CM): 3.39 ± 0.17
- cleaved caspase-3-positive cells ([4]; Control siRNA, W3A CM): 4.45 ± 0.41
- TUNEL staining ([5]; A375, agents individually): minimal TUNEL-positivity
- TUNEL staining ([5]; WNT3A and 2 μM PLX4720, 24 hours): presence of apoptotic cell death
- phosphorylation of β-catenin at GSK3β sites (Ser33/Ser37/Thr41) [6]: decreased phosphorylation of β-catenin
- SYNERGISTIC WNT ACTIVATION WITH PLX4720? [7]: YES
- SYNERGISTIC APOPTOSIS WITH WNT AND PLX4720? [8]: YES
- SYNERGISTIC WNT ACTIVATION WITH PLX4720? [9]: YES
- AXIN1 gene expression (mRNA) [10]: no transcriptional regulation of AXIN1 gene expression
